Reference: publication PMC6156755, “Using Human Plasma as an Assay Medium in Caco-2 Studies Improves Mass Balance for Lipophilic Compounds” (Pharmaceutical Research, 2018)
Where two headings read alike, the source gives them in different places. Marks after values point to notes of the source that are not given here.

Columns and labels:
[1] = Caco-2 permeability assay with pH 7.4 buffer or human plasma in both chambers; settings: human; for efflux ratio: Caco-2, pH 7.4, Efflux ratio (B-A/A-B)
[2] = test system: Caco-2 cell monolayer; assay: as above; settings: for Permeability Classification: criteria of Table V
[3] = Human plasma protein binding (ultracentrifugation or rapid equilibrium dialysis); format: in vitro ADME; settings: for fraction unbound / fraction unbound at 6 h: pH 7.4, read-out: fu (fraction unbound in plasma); for fraction unbound: neat human plasma, 37°C, concentration comparable to Caco-2 assay
Procedure: Binding was assessed using one of two methods: ultracentrifugation ([31]) using neat human plasma or rapid equilibrium dialysis (RED) using either neat or diluted plasma. […] To allow analysis with a single calibration curve, the total plasma and protein-free supernatant samples were ‘matrix-matched’ by taking aliquots of protein-free supernatant samples and adding to fresh tubes containing an equal volume of blank plasma, or taking aliquots of the total plasma samples and adding to fresh tubes containing an equal volume of Dulbecco’s phosphate-buffered saline (DPBS). In this way, the final composition of both the protein-free supernatant samples and the total plasma samples were ‘matched’ prior to the analysis against a common calibration curve prepared in a 1:1 mixture of human plasma and DPBS. All samples were then stored frozen at −80°C until analysis.
The holding plate was then placed on a plate shaker (set at 800 rpm; ThermoMixer C, Eppendorf) and maintained at 37°C under a 2% CO2 atmosphere. The dialysis was conducted for 6 h, assuming steady state was achieved by the end of this period ([32]). Samples were then removed from both the donor and dialysate chambers of each RED insert. […] Samples were matrix matched as described above (but using PBS buffer instead of DPBS) and stored at −80°C until analysis.
For the more lipophilic compounds with potential for very high binding, the RED method was used with diluted plasma to increase the chance of detecting concentrations in the dialysate samples. Diluted human plasma (10% v/v in pH 7.4 phosphate buffered saline) was spiked with each compound (at 10% of the concentration used for the Caco-2 experiment with neat plasma) and binding conducted as described above. The binding in neat plasma was then calculated by correcting for the dilution as described below.
For binding measurements in neat plasma by ultracentrifugation, the fraction unbound (fu) was calculated from the ratio of the average unbound concentration in protein free supernate (Cunbound) to the average total concentration in non-centrifuged plasma (Ctotal). The standard deviation (SD) for the fu value was calculated using the propagation of errors approach as described previously ([33]). For binding measurements using the RED method in neat plasma, fu was calculated from the ratio of the dialysate to total plasma concentration for each dialysis unit and the mean and SD calculated for replicate units (n = 3).
For RED binding assessments using 10% plasma, the fu − diluted for individual dialysis units was calculated in the same way as described above.

[4] = in vitro; settings: human; for Papp A→B: Caco-2, pH 7.4, Papp A-B; for Papp B→A: Caco-2, pH 7.4, Papp B-A
[5] = human; values from the literature; cited from earlier work
[6] = test system: Caco-2 cell monolayer
[7] = Caco-2, pH 7.4, Papp A-B, buffer pH 7.4 in both chambers
[8] = Caco-2, pH 7.4, Papp B-A, buffer pH 7.4 in both chambers
[9] = buffer (HBSS/HEPES pH 7.4) in both chambers
[10] = Caco-2, pH 7.4, Papp A-B, human plasma in both chambers, corrected for fu in donor
[11] = Caco-2, pH 7.4, Papp B-A, human plasma in both chambers, corrected for fu in donor
[12] = RED with diluted human plasma (10% v/v), corrected for dilution, < values from LLOQ

| Compound | Papp A→B [1, 7] [×10⁻⁶ cm/s] | Papp B→A [1, 8] [×10⁻⁶ cm/s] | Mass balance A-B [2, 9] [%] | Permeability Classification ([2]; buffer pH 7.4) | Mass balance B-A ([2]; buffer pH 7.4 in both chambers) [%] | Mass balance A-B ([2]; human plasma in both chambers) | Mass balance B-A ([2]; human plasma in both chambers) | Permeability Classification ([2]; human plasma) | fraction unbound [3] | Papp A→B [1, 10] [×10⁻⁶ cm/s] | other results |
| --- | --- | --- | --- | --- | --- | --- | --- | --- | --- | --- | --- |
| CCN(CC)Cc1cc(Nc2ccnc3cc(Cl)ccc23)ccc1O [Amodiaquine, amodiaquine] | 4.5 ± 0.12 | 7.1 ± 1.9 | 33 ± 1.7 | Intermediate | 93 ± 4.0 | 81 ± 6.1^b % | 88 ± 4.6% | High (Papp ≥ 8.15) | 0.12 |  | efflux ratio ([1]; buffer pH 7.4 in both chambers): 1.6 ± 0.43; efflux ratio ([1]; human plasma in both chambers): 0.7 ± 0.12; Papp A→B [4]: 90 ± 8.3 ×10⁻⁶ cm/s; Papp B→A [4]: 63 ± 9.6 ×10⁻⁶ cm/s |
| CC(C)NCC(O)COc1ccc(CC(N)=O)cc1 (stereo not shown) [Atenolol, atenolol] |  |  |  |  |  |  |  |  |  |  | Human FA (fraction absorbed) [5]: 55% |
| O=C1C(O)=C([C@H]2CC[C@H](c3ccc(Cl)cc3)CC2)C(=O)c2ccccc21 [Atovaquone, atovaquone] |  |  | <10 | Low (Papp < 0.839) | <10 | 99 ± 1.2% | 97 ± 2.3% | High (Papp ≥ 8.15) |  | > 300 | Papp ([1]; Caco-2, pH 7.4): > 300 ×10⁻⁶ cm/s; Papp B→A [1, 11]: > 300 ×10⁻⁶ cm/s; Mass balance A-B ([2]; buffer (HBSS/HEPES pH 7.4) in both chambers, listed as atovaquone): < 10%; Mass balance B-A ([2]; buffer pH 7.4 in both chambers, listed as atovaquone): < 10%; fraction unbound at 6 h [3, 12]: < 0.0002 |
| CCN(CC)CCCC(C)Nc1ccnc2cc(Cl)ccc12 (stereo not shown) [Chloroquine, chloroquine] |  |  |  | High (Papp ≥ 4.90) |  |  |  | High (Papp ≥ 8.15) |  |  | Permeability Classification ([2]; buffer pH 7.4, listed as chloroquine): high; Permeability Classification ([2]; human plasma, listed as chloroquine): high |
| CCCCN(CCCC)CCC(O)c1cc2c(Cl)cc(Cl)cc2c2cc(C(F)(F)F)ccc12 (stereo not shown) [Halofantrine, halofantrine] |  |  | <10 | Low (Papp < 0.839) | <10 | 83 ± 7.6% | 87 ± 4.4% | High (Papp ≥ 8.15) |  |  | Papp ([1]; Caco-2, pH 7.4): > 300 ×10⁻⁶ cm/s; Papp A→B ([1]; Caco-2, pH 7.4): > 300 ×10⁻⁶ cm/s; Papp B→A ([1]; Caco-2, pH 7.4): > 300 ×10⁻⁶ cm/s; Mass balance A-B ([2]; buffer (HBSS/HEPES pH 7.4) in both chambers, listed as halofantrine): < 10%; Mass balance B-A ([2]; buffer pH 7.4 in both chambers, listed as halofantrine): < 10%; fraction unbound at 6 h [3, 12]: < 0.0001 |
| OC(c1cc(C(F)(F)F)nc2c(C(F)(F)F)cccc12)C1CCCCN1 (stereo not shown) [Mefloquine, mefloquine] | 2.1 ± 0.65 | 4.7 ± 0.35 | 15 ± 2.6 | Intermediate | 86 ± 6.7 | 70 ± 2.6^b % | 86 ± 3.1% | High (Papp ≥ 8.15) |  |  | efflux ratio ([1]; buffer pH 7.4 in both chambers): 2.2 ± 0.7; efflux ratio ([1]; human plasma in both chambers): 0.83 ± 0.11; Mass balance A-B ([2]; human plasma in both chambers, listed as mefloquine): 60–70%; fraction unbound at 6 h [3, 12]: 0.015; Papp A→B [4]: 180 ± 20 ×10⁻⁶ cm/s; Papp B→A [4]: 150 ± 10 ×10⁻⁶ cm/s |
| COCCc1ccc(OCC(O)CNC(C)C)cc1 (stereo not shown) [Metoprolol, metoprolol] | 50 ± 6.1 |  |  |  |  |  |  |  | 0.7 |  | Papp A→B [4]: 57 ± 5.8 ×10⁻⁶ cm/s |
| CC(C)(C)NCc1cc(Nc2ccnc3cc(Cl)ccc23)c2c(c1O)CCCC2 [Naphthoquine, naphthoquine] |  |  |  |  |  |  |  |  |  |  | fu (fraction unbound in plasma) [3, 12]: 0.019 ^e; Efflux ratio (B-A/A-B) ([6]; Caco-2): 0.78 ± 0.12; Mass balance B-A ([6]; Caco-2): 94 ± 14%; Papp A-B ([6]; Caco-2): 230 ± 32^b 10^−6 cm/s; Papp B-A ([6]; Caco-2): 180 ± 10^b 10^−6 cm/s; Efflux ratio (B-A/A-B) ([6]; Caco-2, pH 7.4): 2.0 ± 1.3; Mass balance A-B ([6]; Caco-2, pH 7.4): 31 ± 7.2%; Mass balance B-A ([6]; Caco-2, pH 7.4): 70 ± 10%; Papp A-B ([6]; Caco-2, pH 7.4): 2.2 ± 1.3 10^−6 cm/s; Papp B-A ([6]; Caco-2, pH 7.4): 4.5 ± 1.4 10^−6 cm/s; Permeability Classification ([6]; Caco-2, pH 7.4): Intermediate |
| COc1ccc2cc([C@H](C)C(=O)O)ccc2c1 [Naproxen, naproxen] |  |  |  |  |  |  |  |  |  |  | Human FA (fraction absorbed) [5]: 100% |
| CC(=O)Nc1ccc(O)cc1 [Paracetamol, paracetamol] | 32 ± 2.9 |  | 92 ± 3.8 |  |  | 92 ± 0.58% |  |  | 0.86 | 37 ± 4 | Human FA (fraction absorbed) [5]: 90% |
| Clc1ccc2c(N3CCN(CCCN4CCN(c5ccnc6cc(Cl)ccc56)CC4)CC3)ccnc2c1 [Piperaquine, piperaquine] |  |  | <10 | Low (Papp < 0.839) | <10 | 100 ± 8.1% | 100 ± 5.8% | High (Papp ≥ 8.15) |  | > 300 | Papp ([1]; Caco-2, pH 7.4): > 300 ×10⁻⁶ cm/s; Papp B→A [1, 11]: > 300 ×10⁻⁶ cm/s; Mass balance A-B ([2]; buffer (HBSS/HEPES pH 7.4) in both chambers, listed as piperaquine): < 10%; Mass balance B-A ([2]; buffer pH 7.4 in both chambers, listed as piperaquine): < 10%; fraction unbound at 6 h [3, 12]: < 0.001 |
| CC(C)NCC(O)COc1cccc2ccccc12 (stereo not shown) [Propranolol, propranolol] | 58 ± 4.5 | 52 ± 4 |  |  | 97 ± 0.58 |  | 99 ± 2.3% |  | 0.25 |  | Increase in Papp using plasma compared to buffer ([6]; human, Caco-2, pH 7.4): 2-3 fold; Papp A→B [4]: 120 ± 35 ×10⁻⁶ cm/s; Papp B→A [4]: 110 ± 19 ×10⁻⁶ cm/s |
| COC(=O)c1ccccc1-c1c2ccc(=N)cc-2oc2cc(N)ccc12 [Rhodamine 123, rhodamine 123] | 1.6 ± 0.32 | 9.7 ± 1.1 | 99 ± 11 |  | 99 ± 1.2 | 98 ± 1.5% | 92 ± 4.7% |  | 0.35 | 1.2 ± 0.058 | efflux ratio ([1]; buffer pH 7.4 in both chambers): 6.1 ± 1.4; efflux ratio ([1]; human plasma in both chambers): 12 ± 1.4; Papp B→A [1, 11]: 14 ± 1.5 ×10⁻⁶ cm/s |
| CC(C)(C)NC(=O)[C@@H]1C[C@@H]2CCCC[C@@H]2CN1C[C@@H](O)[C@H](Cc1ccccc1)NC(=O)[C@H](CC(N)=O)NC(=O)c1ccc2ccccc2n1 [Saquinavir] | 2.4 ± 1.4 | 34 ± 2.1 | 76 ± 0.58 |  | 60 ± 5.6 | 100 ± 7.2^b % | 110 ± 7.5^b % |  | 0.04 | 8.4 ± 2.5 | Papp B→A [1, 11]: 140 ± 42 ×10⁻⁶ cm/s |
| CC(C)(C)NCC(O)COc1ccc(NC(=O)NC2CCCCC2)cc1 (stereo not shown) [Talinolol, talinolol] |  |  |  |  |  |  |  |  | 0.48 |  |  |
